In PMC8624998, “Synthesis and Antiproliferative Evaluation of 3-Chloroazetidin-2-ones with Antimitotic Activity: Heterocyclic Bridged Analogues of Combretastatin A-4” (Pharmaceuticals, 2021):
Read-outs that look alike come from different tables or passages of the source.

Columns and labels:
[1] = test system: HL-60 cells; assay: Cell viability assay, antiproliferative activity; format: cell-based
Experimental: (§1) […]. The corresponding values for 10e in these cell lines were 161 nM (HL-60), 55 nM (SW480) and 135 nM (HT-29). […] […]. SW480 colon cells expressed low levels of the UDP-glucuronosyltransferase (UGT) protein compared to expression levels in HT-29 cells. […] […].
(§2) The human breast carcinoma cell line MCF-7 was purchased from the European Collection of Animal Cell Cultures (ECACC). Triple negative breast cancer Hs578T cells and its invasive variant Hs578Ts(i)8 were a kind gift from Dr. Susan McDonnell, School of Chemical and Bioprocess Engineering, University College Dublin. U266 cells were a gift from Dr. Tony McElligott, School of Medicine, St James’s Hospital, Trinity College Dublin. HT-29 cells were purchased from the European Collection of Cell Cultures (originating from a human adenocarcinoma of the colon). The human breast carcinoma cell line MDA-MB-231 and the HL-60 cells derived from a patient with acute myeloid leukaemia were both obtained from ECACC (Salisbury, UK). The SW-480 cells were a kind gift from Dr. Brian Flood, School of Biochemistry and Immunology, Trinity College Dublin. HEK-293T (normal epithelial embryonic kidney cells) were cultured in Dulbecco’s Modified Eagle’s Medium (DMEM) with GlutaMAXTM-I in the absence of non-essential amino acids. Human breast cancer MCF-7 cells and multiple myeloma U266 cells were cultured in Minimum Essential Media (MEM) with GlutaMAX™-I, supplemented with 1% (v/v) non-essential amino acids, 10% 2(v/v) foetal bovine serum (FBS) and 1% (v/v) penicillin/streptomycin 5000 U/mL. MDA-MB-231 cells were maintained in DMEM supplemented with 10% (v/v) foetal bovine serum, 2 mM L-glutamine and 100 μg/mL penicillin/streptomycin (complete medium). Colon cancer HT-29 and SW-480 and triple negative breast cancer Hs578T and its invasive variant Hs578T8i were cultured in DMEM with GlutaMAX™-I, with the same supplement in the absence of non-essential amino acids. Leukaemia HL-60 cancer cells were cultured in Roswell Park Memorial Institute Media (RPMI-1640) with GlutaMAX™-I, supplemented with 10% FCS media, and 100 μg/mL penicillin/streptomycin as above. Cell numbers were monitored using a haemocytometer. Cell culture flasks were incubated in a humidified incubator (5% CO2/95% air) at 37 °C. All cell lines were sub-cultured three times per week with trypsinisation using TrypLE Express (1X) required for adherent cell lines.
(§3) . All stock solutions and serial dilution in ethanol/DMSO were stored at -20 °C. All cells were seeded at a density of 2.5 × 10^4 cells/mL in a 96-well plate (200 μL per well). The cells were incubated in a […] atmosphere at 37 °C for 24 h, then treated with test compound (2 μL of stock solutions per 200-microlitre well) in ethanol to obtain a concentration range of 1 nM–200 μM for the study. The plates were then re-incubated for a further 72 h. Control wells contained an equivalent volume of the vehicle ethanol or DMSO (1% v/v). MTT cell viability assay: The culture medium was removed, and the cells were washed with phosphate buffered saline (PBS, […]). MTT (dissolved in PBS, […]) was added to obtain a final concentration of MTT (1 mg/mL). Cells were incubated at 37 °C for 3 h in the dark. Solubilisation was commenced by the addition of DMSO ([…]) and the cells were maintained at 20 °C in the dark for 20 min before reading the absorbance to ensure complete colour diffusion. The absorbance value of control cells (no added compound) was set to 100% cell viability and absorbance versus cell density per well was determined to assess cell viability using Graph-Pad Prism software. AlamarBlue cell viability assay: Cells were seeded in 96-well plates (e.g., MCF-7, 5 × 10^3 cells/well) and (HT-29 cells, 1 × 10^3 cells/well) and (HL-60 cells, 1 × 10^4 cells/well) with a total volume per well of 200 µL. After 24 h, cells were treated in triplicate with serial dilutions of CA-4 or β-lactam analogues (0.001–100 μM), medium alone or vehicle (1% ethanol (v/v)). […]

[2] = test system: HT-29 cells; assay: Cell viability assay, antiproliferative activity; format: cell-based
Experimental: as §1, §2, §3

[3] = test system: SW480 cells; assay: Cell viability assay, antiproliferative activity; format: cell-based, human
Experimental: as §1, §2, §3

[4] = test system: HOP-62; assay: NCI-60 5 dose screen, NSC Lung Cancer; format: cell-based; details: Homo sapiens
[5] = test system: SW-620; assay: NCI-60 5 dose screen, Colon Cancer; format: cell-based; details: Homo sapiens
[6] = test system: SF295; assay: NCI-60 5 dose screen, CNS Cancer; format: cell-based; details: Homo sapiens, SF-295
[7] = test system: SNB-19; assay: NCI-60 5 dose screen, CNS Cancer; format: cell-based; details: Homo sapiens
[8] = test system: LOX IMV1; assay: NCI-60 5 dose screen, Melanoma; format: cell-based; details: Homo sapiens
[9] = test system: SK-MEL-2; assay: NCI-60 5 dose screen, Melanoma; format: cell-based; details: Homo sapiens
[10] = test system: SK-MEL-28; assay: NCI-60 5 dose screen, Melanoma; format: cell-based; details: Homo sapiens
[11] = test system: SK-MEL-5; assay: NCI-60 5 dose screen, Melanoma; format: cell-based; details: Homo sapiens
[12] = test system: UACC-62; assay: NCI-60 5 dose screen, Melanoma; format: cell-based; details: Homo sapiens
[13] = test system: NCI/ADR-RES; assay: NCI-60 5 dose screen, Ovarian Cancer; format: cell-based; details: Homo sapiens
[14] = test system: SK-OV-3; assay: NCI-60 5 dose screen, Ovarian Cancer; format: cell-based; details: Homo sapiens
[15] = test system: A498; assay: NCI-60 5 dose screen, Renal Cancer; format: cell-based; details: Homo sapiens
[16] = test system: RXF 393; assay: NCI-60 5 dose screen, Renal Cancer; format: cell-based; details: Homo sapiens
[17] = test system: SN12C; assay: NCI-60 5 dose screen, Renal Cancer; format: cell-based; details: Homo sapiens
[18] = test system: UO-31; assay: NCI-60 5 dose screen, Renal Cancer; format: cell-based; details: Homo sapiens
[19] = test system: MCF-7; assay: NCI-60 5 dose screen, Breast Cancer; format: cell-based; details: Homo sapiens, MCF7
[20] = test system: MDA-MB-231/ATCC; assay: NCI-60 5 dose screen, Breast Cancer; format: cell-based; details: Homo sapiens
[21] = test system: T-47D; assay: NCI-60 5 dose screen, Breast Cancer; format: cell-based; details: Homo sapiens, T47D
[22] = test system: MDA-MB-468; assay: NCI-60 5 dose screen, Breast Cancer; format: cell-based; details: Homo sapiens
[23] = Homo sapiens, HL-60, 72 h; read-out: HL-60 IC50
[24] = Homo sapiens, HT-29, 72 h; read-out: HT-29 IC50
[25] = Homo sapiens, SW480, 72 h; read-out: SW480 IC50
[26] = MCF-7, NCI screen, read-out: GI50 in MCF-7 cells
[27] = MDA-MB-231/ATCC, read-out: GI50

COc1ccc([C@H]2[C@H](Cl)C(=O)N2c2cc(OC)c(OC)c(OC)c2)cc1 (relative stereo) [Compound 10e trans, Trans-3-chloro-1-(3,4,5-trimethoxyphenyl)-4-(4-methoxyphenyl) azetidin-2-one]
IC50 [1, 23]: 161 ± 20 nM
IC50 [2, 24]: 135 ± 60 nM
IC50 [3, 25]: 55 ± 4 nM
GI50 ([4]; read-out: GI50): 53.8 nM
GI50 ([5]; read-out: GI50): 43.2 nM
GI50 ([6]; SF295, read-out: GI50): 25.4 nM
GI50 ([7]; read-out: GI50): 74.6 nM
GI50 ([8]; read-out: GI50): 67.6 nM
GI50 ([9]; read-out: GI50): 45 nM
GI50 ([10]; read-out: GI50): 69.6 nM
GI50 ([11]; read-out: GI50): 31.2 nM
GI50 ([12]; read-out: GI50): 51.8 nM
GI50 ([13]; read-out: GI50): 35.3 nM
GI50 ([14]; read-out: GI50): 182 nM
GI50 ([15]; read-out: GI50): 27.1 nM
GI50 ([16]; read-out: GI50): 27.1 nM
GI50 ([17]; read-out: GI50): 83.7 nM
GI50 ([18]; read-out: GI50): 64.4 nM
GI50 [19, 26]: 34 nM
GI50 ([19]; MCF-7, read-out: GI50): 34.3 nM
GI50 [20, 27]: 68.6 nM
GI50 ([21]; T-47D, read-out: GI50): 15800 nM
GI50 ([22]; read-out: GI50): 50.8 nM

COc1ccc(/C=C\c2cc(OC)c(OC)c(OC)c2)cc1O [CA-4, Combretastatin A-4]
IC50 [1, 23]: 1.9 ± 0.5 nM
IC50 ([1]; Homo sapiens, HL-60; read-out: HL-60 IC50): 2 nM
IC50 ([2]; Homo sapiens, HT-29; read-out: HT-29 IC50): 4160 nM
IC50 [3, 25]: 3 ± 0.8 nM

COc1ccc(C2C(Cl)C(=O)N2c2cc(OC)c(OC)c(OC)c2)cc1O (stereo not drawn) [Compound 10n, 3-Chloro-4-(3-hydroxy-4-methoxy-phenyl)-1-(3,4,5-trimethoxyphenyl)azetidin-2-one]
IC50 [1, 23]: 10 ± 8 nM
IC50 [2, 24]: 631 ± 30 nM
IC50 [3, 25]: 37 ± 5 nM

CCSc1ccc(C2C(Br)C(=O)N2c2cc(OC)c(OC)c(OC)c2)cc1 (stereo not drawn) [Compound 16d, 3-Bromo-4-(4-(ethylthio)phenyl)-1-(3,4,5-trimethoxyphenyl)azetidin-2-one]
GI50 ([4]; read-out: GI50): 336 nM
GI50 ([5]; read-out: GI50): 236 nM
GI50 ([6]; SF295, read-out: GI50): 87 nM
GI50 ([7]; read-out: GI50): 440 nM
GI50 ([8]; read-out: GI50): 834 nM
GI50 ([9]; read-out: GI50): 484 nM
GI50 ([10]; read-out: GI50): 1940 nM
GI50 ([11]; read-out: GI50): 86.1 nM
GI50 ([12]; read-out: GI50): 97.2 nM
GI50 ([13]; read-out: GI50): 125 nM
GI50 ([14]; read-out: GI50): 392 nM
GI50 ([15]; read-out: GI50): 103 nM
GI50 ([16]; read-out: GI50): 170 nM
GI50 ([17]; read-out: GI50): 925 nM
GI50 ([18]; read-out: GI50): 342 nM
GI50 [19, 26]: 44 nM
GI50 ([19]; MCF-7, read-out: GI50): 44.7 nM
GI50 [20, 27]: 488 nM
GI50 ([21]; T-47D, read-out: GI50): 16900 nM
GI50 ([22]; read-out: GI50): 154 nM

COc1ccc(C2N(c3cc(OC)c(OC)c(OC)c3)C(=O)C2(Cl)Cl)cc1O (stereo not drawn) [Compound 11n, 3,3-Dichloro-4-(3-hydroxy-4-methoxyphenyl)-1-(3,4,5-trimethoxyphenyl)azetidin-2-one]
IC50 ([1]; Homo sapiens, HL-60, 72 h, read-out: HL-60 IC50): 16 ± 5 nM
IC50 ([2]; Homo sapiens, HT-29, 72 h, read-out: HT-29 IC50): 941 ± 60 nM
IC50 ([3]; Homo sapiens, SW480, 72 h, read-out: SW480 IC50): 44 ± 8 nM
GI50 [4]: 35 nM
GI50 [5]: 37.6 nM
GI50 [6]: 38.7 nM
GI50 [7]: 45.7 nM
GI50 [8]: 41.5 nM
GI50 [9]: 31.6 nM
GI50 [10]: 62.9 nM
GI50 [11]: 22.5 nM
GI50 [12]: 42.2 nM
GI50 [13]: 26.5 nM
GI50 [14]: 25.4 nM
GI50 [15]: 22.6 nM
GI50 [16]: 30 nM
GI50 [17]: 44.6 nM
GI50 [18]: 82.1 nM
GI50 [19]: 31 nM
GI50 ([20]; MDA-MB-231): 31.6 nM
GI50 [21]: 11600 nM
GI50 [22]: 22.6 nM
